Results taken from US20220000911A1, “COMBINATION OF GOLD COMPLEXES WITH OLAPARIB OR OTHER PARP1/2 INHIBITORS FOR USE IN THE TREATMENT OF CANCER RESISTANT TO SAID PARP1/2 INHIBITORS” (Varsity Pharmaceuticals Limited, priority 2020, published 2022).

Experiments:
Type in all cases: cell-based
[1] = system: olaparib resistant HCC1937 triple negative breast cancer cells; assay: Proliferation inhibition of olaparib resistant HCC1937 cells, single agents
Description: (§1) The cells were harvested from a flask into cell culture medium (RPMI 1640 Medium with 10% FBS) and then counted. The cells were diluted with culture medium and 40 μL of cell suspension (1000 cells/well) was added into each well of a 384-well cell culture plate. The plate was covered with a lid and left at room temperature without shaking for 30 minutes. The plate was then transferred to an incubator at 37° C. and 5% CO2 and left overnight.
(§2) Test compounds were dissolved at a concentration of 30 mM in DMSO to create a stock solution. 45 μL of the stock solution was transferred to a 384 pp-plate. A 3-fold, 10-point dilution was performed by transferring 15 μL of the compound solution into 30 μL DMSO by using TECAN (EVO200) liquid handler. The plate was then spun at room temperature at 1,000 RPM for 1 minute. 40 nL of the diluted compound was then transferred from the compound source plate into the cell plate. The cell plate was then covered with a lid and placed in an incubator at 37° C. and 5% CO2 and left for 120 hours. 72 hours after treatment with the compound detection was conducted as discussed below.
(§3) CellTiter Glo® reagents were thawed and equilibrated to room temperature. The cell plate was then removed from the incubator and equilibrated at room temperature for 15 minutes. 30 μL of the CellTiter Glo® reagents were then added into each well (at 1:1 to culture medium). The contents was mixed for 2 minutes on an orbital shaker to induce cell lysis and then the plates were allowed to incubate at room temperature for 30 minutes. Luminescence was then measured on an Envision reader (Perkin Elmer).
(§4) Inhibition (%)=100×(Lumvehicle−Lumsample)/(Lumvehicle−Lumblank),
The methods were as described in examples 1 and 2, except the HCC1937 cell line was used.
The HCC1937 cell line was established from a primary breast carcinoma from a patient with a germ-line BRCA1 mutation. It is an example of a triple-negative breast cancer (TNBC) cell line. Breast cancer patients routinely have the expression of estrogen receptor (ER), progesterone receptor (PR), and amplification of HER-2/Neu evaluated. […] The latter group is referred to as triple-negative breast cancer based on the lack of these three molecular markers. TNBC represents approximately 10-15% of all breast cancers and patients with TNBC have a poor outcome compared to the other subtypes of breast cancer.

[2] = system: wildtype A2780 ovarian cancer cells; assay: CellTiter Glo proliferation inhibition, wild-type A2780 cells; conditions: for Mean Inhibition (n = 3): wildtype A2780
Description: The A2780 cell line is an ovarian cancer cell line that was established from an ovarian endometroid adenocarcinoma tumour. […] It is commonly used as a model to observe the effects of, and test the potency of various chemicals, methods of delivery and treatments for ovarian cancer. […] The cells were diluted with culture medium and 40 μL of cell suspension (1000 cells/well) was added into each well of a 384-well cell culture plate. The plate was covered with a lid and left at room temperature without shaking for 30 minutes. The plate was then transferred to an incubator at 37° C. and 5% CO2 and left overnight. Test compounds were dissolved at a concentration of 30 mM in DMSO to create a stock solution. 45 μL of the stock solution was transferred to a 384 pp-plate. […] The plate was then spun at room temperature at 1,000 RPM for 1 minute. 40 nL of the diluted compound was then transferred from the compound source plate into the cell plate. The cell plate was then covered with a lid and placed in an incubator at 37° C. and 5% CO2 and left for 120 hours. 72 hours after treatment with the compound detection was conducted as discussed below. CellTiter Glo® reagents were thawed and equilibrated to room temperature. The cell plate was then removed from the incubator and equilibrated at room temperature for 15 minutes. 30 μL of the CellTiter Glo® reagents were then added into each well (at 1:1 to culture medium). The contents was mixed for 2 minutes on an orbital shaker to induce cell lysis and then the plates were allowed to incubate at room temperature for 30 minutes. Luminescence was then measured on an Envision reader (Perkin Elmer). The inhibition activity was calculated using the following formula: […]

[3] = system: olaparib resistant A2780 ovarian cancer cells; assay: CellTiter Glo proliferation inhibition, olaparib resistant A2780 cells, single agents; conditions: for Mean Inhibition (n = 3): olaparib resistant A2780
Description: A2780 ovarian cancer cells (wild-type “WT”) were cultured in RPMI 1640 Medium with 10% Fetal Bovine Serum (FBS).
To obtain cells resistant to olaparib, the cells were cultured in cell culture medium (RPMI 1640 Medium with 10% FBS) supplemented with 20 μM olaparib for one month in order to generate A2780 cells resistant to olaparib (“R”). After a month the cells were continuously cultured in the cell culture medium (RPMI 1640 Medium with 10% FBS) supplemented with 10 μM olaparib prior to use and for up to two months to maintain the resistance.
as §1
as §2, with “A 3-fold, 10-point dilution was performed by transferring 15 μL of the compound solution into 30 μL DMSO by using TECAN (EVO200) liquid handler.” left out
as §3
The inhibition activity was calculated using the following formula:
as §4
where Lumvehicle is the luminescence of cells treated with 0.1% DMSO and Lumblank is cells in the culture medium.
The IC50 was calculated by fitting the curve using Xlfit (v5.3.1.3), equation 201: […]

[4] = concentration range 0.06 nM to 30,000 nM

## CC(=O)OC[C@H]1O[C@@H]([S-])[C@H](OC(C)=O)[C@@H](OC(C)=O)[C@@H]1OC(C)=O.CCP(CC)CC.[Au+] [Auranofin, auranofin]
[1]; test conc. 1.52 nM
  Mean Inhibition (n = 3): −8.11%
[1]; test conc. 4.57 nM
  Mean Inhibition (n = 3): 0.54%
[1]; test conc. 13.72 nM
  Mean Inhibition (n = 3): −0.91%
[1]; test conc. 41.15 nM
  Mean Inhibition (n = 3): 0.49%
[1]; test conc. 123.46 nM
  Mean Inhibition (n = 3): 0.54%
[1]; test conc. 370.37 nM
  Mean Inhibition (n = 3): 13.11%
[1]; test conc. 1,111.11 nM
  Mean Inhibition (n = 3): 59.64%
[1]; test conc. 3,333.33 nM
  Mean Inhibition (n = 3): 98.95%
[1]; test conc. 10,000 nM
  Mean Inhibition (n = 3): 100.03%
[1]; test conc. 30,000 nM
  Mean Inhibition (n = 3): 99.97%
[2]; [4]
  Maximum inhibition observed in wild-type A2780 cells: 100%
[2]; wild-type A2780 cells
  IC50: 101 nM
[2]; test conc. 1.52 nM
  Mean Inhibition (n = 3): −1.87%
[2]; test conc. 4.57 nM
  Mean Inhibition (n = 3): −0.74%
[2]; test conc. 13.72 nM
  Mean Inhibition (n = 3): 2.52%
[2]; test conc. 41.15 nM
  Mean Inhibition (n = 3): 21.08%
[2]; test conc. 123.46 nM
  Mean Inhibition (n = 3): 56.32%
[2]; test conc. 370.37 nM
  Mean Inhibition (n = 3): 86.25%
[2]; test conc. 1,111.11 nM
  Mean Inhibition (n = 3): 98.39%
[2]; test conc. 3,333.33 nM
  Mean Inhibition (n = 3): 100.15%
[2]; test conc. 10,000 nM
  Mean Inhibition (n = 3): 100.17%
[2]; test conc. 30,000 nM
  Mean Inhibition (n = 3): 100.20%
[3]; [4]
  Maximum inhibition observed in olaparib resistant A2780 cells: 100%
[3]; test conc. 1.52 nM
  Mean Inhibition (n = 3): 4.64%
[3]; test conc. 4.57 nM
  Mean Inhibition (n = 3): 3.42%
[3]; test conc. 13.72 nM
  Mean Inhibition (n = 3): 12.34%
[3]; test conc. 41.15 nM
  Mean Inhibition (n = 3): 41.07%
[3]; test conc. 123.46 nM
  Mean Inhibition (n = 3): 78.31%
[3]; test conc. 370.37 nM
  Mean Inhibition (n = 3): 96.38%
[3]; test conc. 1,111.11 nM
  Mean Inhibition (n = 3): 96.82%
[3]; test conc. 3,333.33 nM
  Mean Inhibition (n = 3): 100.13%
[3]; test conc. 10,000 nM
  Mean Inhibition (n = 3): 100.19%
[3]; test conc. 30,000 nM
  Mean Inhibition (n = 3): 100.17%
[3]; olaparib resistant A2780 cells
  IC50: 55 nM
